Source: patent US20250099488A1, “ANTI-PARASITE COMPOUNDS” (AUSTRALIAN NATIONAL UNIVERSITY, priority 2022, published 2025)
Read-outs that look alike come from different tables or passages of the source.

Key:
[1] = test system: P. falciparum infected red blood cells (iRBC) vs uninfected red blood cells (uRBC); assay: Uptake of fluorescent cholesterol analogues into infected vs uninfected RBCs (flow cytometry, microscopy); format: cell-based, Plasmodium falciparum; details: 24 hrs incubation, ring-stage culture, cholesterol-depleted media
Description: (§1) For quantification, events were measured on a LSR II or LSRFortessa Flow Cytometer. NBD/BODIPY fluorescence was detected at 488 nm ex/530 nm em. Hoechst 33342 (Thermo Fisher) fluorescence was detected at 410 nm ex/450 nm em. Resorufin fluorescence was detected at 561 nm ex/610 nm em. Mitotracker Deep Red was detected at 633 nm ex/670 nm em. Dehydroergosterol was detected at 355 nm ex/450 nm em.
(§2) Data were initially processed using FlowJo. RBCs were gated on FSC and SCC. iRBCs (positive) and uRBCs (negative) were differentiated by Hoechst or Mitotracker fluorescence. The geometric mean of fluorescence intensity (mean fluorescence intensity, MFI) and/or the percentage of each population (e.g. Hoechst positive) was calculated with FlowJo. Background fluorescence was subtracted based on unstained controls (buffer or solvent only). Except where otherwise specified, MFI data was normalised between experiments by setting the fluorescence of untreated uRBCs to 1.
Ring-stage parasites at 4% parasitaemia and 2% haematocrit were incubated with 2.02 uM cholesterol analogues or solvent controls in cholesterol-depleted media for 24 hours at 37° C. under microaerophilic conditions. […] Samples were read on a flow cytometer or imaged with fluorescence microscopy as described above. […]

[2] = test system: P. falciparum gametocytes (stage III-IV); assay: Gametocyte viability assay (MitoTracker, flow cytometry); format: cell-based, Plasmodium falciparum; details: FIG. 9C
Text: Gametocyte assays begun eight days post-invasion (Stage III-IV).
(§3) Growth inhibition data were normalised by subtracting background fluorescence, luminescence, absorbance, or percentage of cells from a no-growth or no-viability control (high drug concentration, no-parasite control, or time=0 measurement as specified), and expressed as a percentage of the growth or cell percentage in the negative control (culture media alone or solvent control) at the indicated timepoint (or to the highest measurement reached during the assay for FIG. 15B).

[3] = test system: human foreskin fibroblasts (HFF); assay: HFF growth inhibition assay (SYBR Safe); format: cell-based; details: 72 hrs
Description: Cells were incubated with a serial dilution of each compound, or media/DMSO alone. The protein synthesis inhibitor cycloheximide (10 μg/mL) was used as a positive control to determine background fluorescence. Approximately 5000 cells were seeded in each well. […] Plates were transferred to a −18° C. freezer. […] Fluorescence was read at 490 nm excitation/520 nm emission on a FLUOstar Optima fluorescence plate reader.
HFF cell growth inhibition assays began with 5000 cells per well. 10 μg/mL cycloheximide was used as a no-growth control.

Leishmania tarentolae = Leishmania tarentolae growth inhibition; format: cell-based; details: 72 hours, FIG. 22
[4] = test system: P. falciparum infected red blood cells (iRBC) vs uninfected red blood cells (uRBC); assay: Uptake and cleavage of steroid-resorufin conjugate in iRBCs vs uRBCs; format: cell-based, Plasmodium falciparum; details: steroid-resorufin conjugate (PAYb193), FIG. 10A
Description: Images were collected and deconvoluted on a Deltavision Deconvolution microscope at 1000× magnification, with a resolution of 0.067 μm per pixel. NBD and BODIPY fluorescence were detected at 475/28 nm excitation and 525/48 nm emission. Hoechst fluorescence (nucleic acid) was detected at 390/18 nm and ex/435/48 nm em. Resorufin fluorescence was detected at 575/25 nm ex and 626/45 nm em.
as §1, §2

asexual P. falciparum = assay: Plasmodium growth inhibition assay (SYBR Safe), asexual stages; format: cell-based, Plasmodium falciparum; details: 72 hrs, FIG. 10B
Description: Compounds or solvent controls (DMSO, ethanol, or ethyl acetate) were serially diluted 2-fold across flat-bottom 96-well plates. Complete culture media without compound was used as a negative control. Chloroquine (100-200 nM) {Sigma C6628} was used as a positive control to determine background fluorescence. The parasitaemia of a culture containing predominantly ring stage parasites was counted by Giemsa smear. The parasitaemia was adjusted to 1% by addition of fresh uRBCs, and added to the plate at a final haematocrit of 1%, with 200 μL per well. The plates were incubated at 37° C. under humid microaerophilic conditions. […] Fluorescence was read at 490 nm excitation/520 nm emission on a FLUOstar Optima fluorescence plate reader {BMG Labtech}.
Growth inhibition data were normalised by subtracting background fluorescence from a no-growth control (high drug concentration or time=0 measurement as specified), and expressed as a percentage of the growth in the negative control (media alone or solvent control) either at the indicated timepoint, or to the highest measurement reached during the assay.
P. falciparum asexual parasite assays begun with ring-stage parasites at 1% parasitaemia and 1% haematocrit. 200 nM chloroquine (Sigma C6628) was used as a no-growth control. […] 17]; 8 (2):e54974).
as §3

[5] = HEK293 cell viability assay (MTT); format: cell-based, human; details: human, 72 hours, FIG. 21E, conjugate = BC75D, read-out: IC50, HEK293 cytotoxicity
Description: HEK293 cell viability assays began with 5000 cells per well. 10 μg/mL cycloheximide was used as a no-growth control. Metabolic capacity (indicating viability) was measured by incubation with 0.45 mg/mL methylthiazolyldiphenyl-tetrazolium bromide (MTT; Sigma M2128) for two hours followed by crystal solubilisation in SDS.

[6] = test system: chloroquine sensitive P. falciparum strains 3D7 and C2_GC03; assay: Growth inhibition of chloroquine sensitive P. falciparum strains; format: cell-based, Plasmodium falciparum; details: FIG. 21B/21C
Description: (§4) Growth inhibition was investigated according to methods described by Smilkstein et al. (2004) with modifications by Spry et al. (2013). Compounds or solvent controls (DMSO, ethanol, or ethyl acetate) were serially diluted 2-fold across flat-bottom 96-well plates. Complete culture media without compound was used as a negative control. Chloroquine (100-200 nM) {Sigma C6628} was used as a positive control to determine background fluorescence. The parasitaemia of a culture containing predominantly ring stage parasites was counted by Giemsa smear. The parasitaemia was adjusted to 1% by addition of fresh uRBCs, and added to the plate at a final haematocrit of 1%, with 200 μL per well. The plates were incubated at 37° C. under humid microaerophilic conditions. After 72 hours (or the indicated timepoint), the plates were transferred to a −18° C. freezer to stop the assay and lyse cells. Plates were thawed and lysate was mixed 1:1 with SYBR Safe DNA Gel Stain {Invitrogen 33102}(final concentration 1/10000) diluted in lysis buffer (20 mM TRIS, 5 mM EDTA, 0.008% w/v Saponin, 0.08% w/v Triton-X 100, pH 7.5). Fluorescence was read at 490 nm excitation/520 nm emission on a FLUOstar Optima fluorescence plate reader {BMG Labtech}. […]

[7] = test system: chloroquine resistant P. falciparum strain C4_Dd2; assay: Growth inhibition of chloroquine resistant P. falciparum strain; format: cell-based, Plasmodium falciparum; details: 72 hours, FIG. 21D; conjugate = BC75D
Description: as §4

**Q.** For `CC(C)CCC[C@@H](C)[C@H]1CC[C@H]2[C@@H]3CC=C4C[C@@H](OC(=O)CCCCCNc5ccc([N+](=O)[O-])c6nonc56)CC[C@]4(C)[C@H]3CC[C@]12C` [3-hexanoyl-NBD-cholesterol], which “Uptake in iRBC compared to uRBC (fold change of fluorescence)” value [1] is on record?
**A.** Its value is “not significantly different”.

**Q.** Which “Uptake in iRBC compared to uRBC (fold change of fluorescence)” value [1] does the source give for `CC1=CC(C)=[N+]2C1=C(CC[C@@H](C)[C@H]1CC[C@H]3[C@@H]4CC=C5C[C@@H](O)CC[C@]5(C)[C@H]4CC[C@]13C)c1c(C)cc(C)n1[B-]2(F)F` [24-BODIPY-cholesterol] here?
**A.** The value was “seems to get stuck at the RBC membrane”.

**Q.** Which “Susceptibility of early (I-III) and late stage (III-IV) gametocytes” value [2] does the source give for `COc1cc(NC(C)CCCNC(=O)CCC(=O)O[C@H]2CC[C@H]3[C@@H]4CC=C5C[C@@H](O)CC[C@]5(C)[C@H]4CC[C@]23C)c2ncccc2c1` (stereo partly shown) [BC5B] here?
**A.** The value was “both early (A) and late-stage (B) gametocytes are equally susceptible”.

**Q.** And the “Maximal inhibition of HFF growth at the range of concentrations tested” value [3]?
**A.** The value was ≤ 50%.

**Q.** What about the IC50 (Leishmania tarentolae) of the same compound?
**A.** Its IC50 is “higher efficacy than primaquine”.

**Q.** With `CC(C)(C)OOCCO[C@H]1CC[C@H]2[C@@H]3CC=C4C[C@@H](O)CC[C@]4(C)[C@H]3CC[C@]12C` [BC86D] as the compound, how does the IC50 (Leishmania tarentolae; Leishmania tarentolae, read-out: IC50) read?
**A.** The IC50 was < 1 µM.

**Q.** For `CC12CCC(O)CC1=CCC1C2CCC2(C)C(OC(=O)CCC(=O)OCOc3ccc4nc5ccc(=O)cc-5oc4c3)CCC12` (stereo not drawn) [Payb193, 3β-hydroxyandrost-5-en-17β-yl succinate-(hydroxymethoxy)-resorufin ester], which “Uptake of the probe, iRBCs vs uRBCs” value [4] is on record?
**A.** Its value is “approximately 2 fold”.

**Q.** What about the “Killing of the parasite compared with uncoupled resorufin (dose-response curve)” value (asexual P. falciparum) of the same compound?
**A.** The value was “can kill the parasite at lower concentrations than the uncoupled resorufin base molecule”.

**Q.** Which results are given for `CCN(CCO)CCCC(C)Nc1ccnc2cc(Cl)ccc12` (stereo not shown) [hydroxychloroquine, reference compound]?
**A.** IC50 at 72 h ([5]; HEK293 cells): 38.4 µM; Fold better efficacy than hydroxychloroquine-steroid conjugates [6]: 1.4-1.6 fold

**Q.** Which results are given for `CCN(CCCC(C)Nc1ccnc2cc(Cl)ccc12)CCOC(=O)CCC(=O)O[C@H]1CC[C@H]2[C@@H]3CC=C4C[C@@H](O)CC[C@]4(C)[C@H]3CC[C@]12C` (stereo partly shown) [hydroxychloroquine-steroid conjugate]?
**A.** IC50 at 72 h [5]: 13 µM; Times more effective at killing resistant parasites than hydroxychloroquine [7]: 2.6 fold

**Q.** Which “Uptake of the probe, iRBCs vs uRBCs” value [4] does the source give for `C[C@]12CC[C@H]3[C@@H](CC=C4C[C@@H](O)CC[C@@]43C)[C@@H]1CC[C@@H]2OC(=O)CCC(=O)OCOc1ccc2nc3ccc(=O)cc-3oc2c1` [steroid-resorufin conjugate, 3β-Hydroxyandrost-5-en-17β-yl succinate-(hydroxymethoxy)-resorufin ester] here?
**A.** Its value is “approximately 2 fold”.
